The target of assay [1] is T1, Mu-type opioid receptor (Homo sapiens, UniProt P35372). Nature of the assay: Agonist activity at human mu opioid receptor expressed in CHO cells assessed as stimulation of calcium mobilization by Fluo-4 AM dye based analysis.
In assay [2] the target is T1, Mu-type opioid receptor. Nature of the assay: Agonist activity at human mu opioid receptor expressed in CHO cells assessed as dynamic mass redistribution by DMR assay. The format is functional, cell-based.
Assay [3] concerns the target T2, Nociceptin receptor (Homo sapiens, UniProt P41146). Nature of the assay: Agonist activity at human NOP receptor expressed in CHO cells assessed as stimulation of calcium mobilization by Fluo-4 AM dye based analysis. (Calcium flux is commonly read through the fluorescence of an indicator in the cells.)
The target in assay [4] is T1, Mu-type opioid receptor. Nature of the assay: Agonist activity at human mu opioid receptor expressed in CHO cells assessed as dynamic mass redistribution by DMR assay relative to control. To be noted: filed as agonist. The format is functional, cell-based.
Assay [5] deals with T2, Nociceptin receptor.
Description: Agonist activity at human NOP receptor expressed in CHO cells assessed as dynamic mass redistribution by DMR assay
The target in assay [6] is Kappa-type opioid receptor (Homo sapiens, UniProt P41145). Nature of the assay: Agonist activity at human kappa opioid receptor expressed in CHO cells assessed as stimulation of calcium mobilization by Fluo-4 AM dye based analysis. The format is functional, cell-based.
Chain of Kappa-type opioid receptor (P41145 whole entry): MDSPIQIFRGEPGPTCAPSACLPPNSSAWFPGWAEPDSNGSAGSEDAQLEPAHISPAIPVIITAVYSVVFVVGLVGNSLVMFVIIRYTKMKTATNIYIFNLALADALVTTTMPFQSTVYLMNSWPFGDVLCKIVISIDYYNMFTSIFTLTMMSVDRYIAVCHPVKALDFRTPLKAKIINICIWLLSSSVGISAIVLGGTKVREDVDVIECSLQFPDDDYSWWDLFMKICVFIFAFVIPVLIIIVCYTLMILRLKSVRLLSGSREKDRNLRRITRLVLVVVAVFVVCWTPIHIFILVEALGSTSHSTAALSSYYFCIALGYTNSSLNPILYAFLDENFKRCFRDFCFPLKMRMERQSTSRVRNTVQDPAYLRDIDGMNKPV
In assay [7] the test system is Cavia porcellus. Nature of the assay: Anti-tussive activity in citric acid-induced guniea pig cough model coadministered with citric acid. The format is functional, organism-based.
Another assay concerns CHO. The assay can be described thus: Concentration ratio of human NOP receptor expressed in CHO cells to human mu opioid receptor expressed in CHO cells. Type of assay: cell-based.
For assay [8], the species on record is Cavia porcellus. Nature of the assay: Anti-tussive activity in citric acid-induced guniea pig cough model assessed as reduction in cough number co- treated with nebulizer. The format is functional, organism-based. Conditions: time 30.0 min.

Calls of active or inactive are those of the source. No cut-off for these calls is given here. Where a SMILES comes first, the peptide text is derived from it. [ ]: non-standard residue; d: D form. Dmt = Cc1cc(O)cc(C)c1C[C@H](N)C(=O)O

T1 sequence (P35372 whole entry): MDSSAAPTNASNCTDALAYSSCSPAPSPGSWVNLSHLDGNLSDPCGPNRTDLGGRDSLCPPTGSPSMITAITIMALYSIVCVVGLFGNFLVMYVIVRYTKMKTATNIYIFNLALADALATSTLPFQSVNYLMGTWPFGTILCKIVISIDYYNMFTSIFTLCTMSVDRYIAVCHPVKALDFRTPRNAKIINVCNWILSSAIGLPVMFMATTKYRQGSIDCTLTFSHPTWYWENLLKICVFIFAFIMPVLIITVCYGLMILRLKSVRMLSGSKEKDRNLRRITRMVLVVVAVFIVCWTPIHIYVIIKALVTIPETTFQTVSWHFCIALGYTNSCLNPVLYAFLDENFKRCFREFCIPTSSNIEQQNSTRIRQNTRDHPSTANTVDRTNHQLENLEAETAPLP
T2 sequence (P41146 whole entry): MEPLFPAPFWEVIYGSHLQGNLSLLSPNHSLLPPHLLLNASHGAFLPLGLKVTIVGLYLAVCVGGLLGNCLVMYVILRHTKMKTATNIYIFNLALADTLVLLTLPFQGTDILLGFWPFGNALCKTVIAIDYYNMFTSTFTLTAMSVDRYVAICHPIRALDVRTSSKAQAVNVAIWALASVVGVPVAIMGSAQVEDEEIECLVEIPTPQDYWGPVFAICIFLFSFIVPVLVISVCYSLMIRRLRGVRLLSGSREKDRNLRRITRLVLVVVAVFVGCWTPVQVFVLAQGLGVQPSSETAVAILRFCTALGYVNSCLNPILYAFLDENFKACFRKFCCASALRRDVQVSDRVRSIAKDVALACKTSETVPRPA

On to `Cc1cc(O)cc(C)c1C[C@H](NC(=O)[C@H](Cc1ccccc1)NC(=O)CNC(=O)CNC(=O)[C@@H](N)Cc1c(C)cc(O)cc1C)C(=O)NCC(=O)N[C@@H](C)C(=O)N[C@@H](CCCNC(=N)N)C(=O)N[C@@H](CCCCN)C(=O)N[C@@H](CO)C(=O)N[C@@H](C)C(=O)N[C@@H](CCCNC(=N)N)C(=O)N[C@@H](CCCCN)C(N)=O` (H-[Dmt]GGF[Dmt]GARKSARK-NH2), for which the EC50 – broadly, the midpoint of the concentration-response curve – was 8.32 nM at Mu-type opioid receptor [1]; 2.29 nM at Mu-type opioid receptor [2]; 4.07 nM on Nociceptin receptor [3]; 19.5 nM on Nociceptin receptor [5]; 3.24 nM in assay [6]. Also, the Emax (commonly the maximal effect, on the per cent scale that the assay sets) on Mu-type opioid receptor [4] worked out at 202%. Besides, the result in the assay on Cavia porcellus [7] was inactive. Also, the Ratio in the assay with CHO worked out at 0.49. Also, the result in the assay filed under Cavia porcellus [8] was Active.

These data come from ChEMBL document CHEMBL5032494, “Novel Mixed NOP/Opioid Receptor Peptide Agonists” (J Med Chem, 2021).
